Reference: US20260103529A1, “Amino Acid Sequences Directed Against the Melanocortin 4 Receptor and Polypeptides Comprising the Same for the Treatment of MC4R-Related Diseases and Disorders” (Confo Therapeutics N.V., priority 2022, published 2026)

How the values were obtained:
Assay type in all cases: cell-based
[1] = system: highly pigmented normal human epidermal melanocytes (NHEM-HP); assay: In vitro pigmentation assay, melanin synthesis, 2D NHEM highly pigmented; conditions: 10 days; for melanin synthesis compared to the non-stimulated control, reference compounds: 1 mM L-tyrosine, 100 μM IBMX or 10 μM NDP-MSH
Method: (§1) Highly and moderately pigmented melanocytes were seeded in 24-well plates and cultured in culture medium for 24 hours. The medium was then replaced by culture medium containing or not (control) the test compounds or the reference compounds (L-tyrosine at 1 mM, IBMX at 100 and 200 μM and NDP-MSH at 10 μM). The cells were then incubated for 10 days with treatment renewal at day 3 and day 7. All experimental conditions were performed in n=3. At the end of the incubation time, the culture supernatants were removed, and melanin was extracted by cell lysis using a 0.5 N NaOH solution. The optical density (OD) of each experimental point was measured at 405 nm and melanin quantity was determined according to melanin standard curve (standard curve ranging from 0.39 to 100 μg/ml). The results were expressed in μg/ml of melanin. […] NHEM-HP response to L-tyrosine and NDP-MSH was stronger than in NHEM-MP while IBMX induced a stronger response in the NHEM-MP.

[2] = system: moderately pigmented normal human epidermal melanocytes (NHEM-MP); assay: In vitro pigmentation assay, melanin synthesis, 2D NHEM moderately pigmented; conditions: 10 days; for melanin synthesis compared to the non-stimulated control, reference compounds: 1 mM L-tyrosine, 100 μM IBMX or 10 μM NDP-MSH
Method: as §1

[3] = system: melanized reconstituted human epidermis (RHE/MEL/001); assay: In vitro pigmentation assay, 3D reconstituted human epidermis, dermoscopy
Method: The study was carried out on melanized human epidermis (RHE/MEL/001; batch CB0521-3) in vitro reconstituted with NHEKs (Normal human epidermal keratinocytes, Lonza 00192906) isolated from foreskin of 3 neonatal Caucasian donors and NHEM-DP (Normal Human Epidermal Melanocytes-Darkly pigmented) isolated form one donor (phototype IV-V). The tissues were cultured at the air-liquid interface in Epilife medium (Fisher Scientific, MEP1500CA) containing specific supplements (with among others Human Keratinocytes Growth Factors, Fisher Scientific S0015 or SO01K) and antibiotics (Gentamycin, Fisher Scientific, 15710049). They were maintained in a humid atmosphere at 37° C. with 5% CO2.
RHE/MEL/001 were reconstituted and cultivated at the air-liquid interface during 14 days in Epilife medium supplemented with specific growth supplements (as described in paragraph 1) in a humid atmosphere at 37° C. with CO2 5%.
IBMX (Sigma; 15879) at 100 µM was used as tanning reference compound to validate the experiment. A DMSO control (corresponding to the solvent used to solubilize IBMX) at 0.02% (corresponding to the final concentration in DMSO found in the culture medium for the condition treated with IBMX) was planned as well. Four replicates were planned per condition (n=4).
At the end of the 10 days treatments (at day 14), macroscopic high-resolution pictures of tissues (n=4) were taken. This was performed using the C-Cube device (Dermoscope type tool; Pixience, France) coupled to C-Cube clinical 3 software, which uses a proprietary method of colour calibration, and provides razor-sharp images of high quality and precision. The following endpoints were calculated, each one taking into account 3 values from the mode “L* a* b*” with L* reflecting the luminance/brightness (value from 0 to 100 with high values for clear skins), a* to gives an idea about the redness of the skin (value from −60 to 60 on the red/green axis) and b* to gives an idea about the yellowness of the skin (value from −60 to 60 on the blue/yellow axis): • ITA (Individual Typology Angle) characterizing the phototype, compared to a standard scale, with ITA>55° for very clear skins and ITA<−30° for black skins. • PI (Pigmentation Index) whose value is directly proportional to the skin pigmentation, with PI from 140 for clear skins to 200 for dark skins. • Colorimetric difference (score or ΔE) allows to quantify colour variation between a test condition and a reference. […]
The two test items, hydro-soluble, were evaluated in parallel of one reference compound known to be a pigmentation inducer, namely IBMX. Their capacity to stimulate the production of melanin was evaluated by visual quantification of melanin on macroscopic high resolution pictures obtained by dermoscopy. […]

human wild type MC5R = target: T1, human wild type MC5R (Homo sapiens, UniProt P33032); assay: cAMP GloSensor assay, MC5R; conditions: HEK293 cells transiently transfected with human MC5R; read-out: average signaling potency (EC50), cAMP GloSensor, MC5R
T1 construct: expressed in transfected cells; host or cells: HEK293 / HEK 293T, pcDNA3.1(+)
T1 sequence (P33032 whole entry): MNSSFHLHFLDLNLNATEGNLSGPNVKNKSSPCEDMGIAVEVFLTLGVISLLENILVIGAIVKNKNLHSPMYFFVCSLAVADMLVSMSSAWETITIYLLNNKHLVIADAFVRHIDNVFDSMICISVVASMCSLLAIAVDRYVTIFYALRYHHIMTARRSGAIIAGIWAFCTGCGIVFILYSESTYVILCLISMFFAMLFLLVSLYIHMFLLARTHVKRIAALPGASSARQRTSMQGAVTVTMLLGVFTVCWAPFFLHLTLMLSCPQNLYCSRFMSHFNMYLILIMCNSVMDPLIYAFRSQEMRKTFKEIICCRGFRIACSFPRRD

[4] = 10 μM in culture medium, 10 days, dermoscopy

## NDP-MSH
[1]
  melanin synthesis compared to the non-stimulated control, reference compounds: induced a stimulation of melanin synthesis
[2]
  melanin synthesis compared to the non-stimulated control, reference compounds: induced a stimulation of melanin synthesis

## CC(C)Cn1c(=O)n(C)c(=O)c2[nH]cnc21 [IBMX]
[1]
  melanin synthesis compared to the non-stimulated control, reference compounds: induced a stimulation of melanin synthesis
[2]
  melanin synthesis compared to the non-stimulated control, reference compounds: induced a stimulation of melanin synthesis

## Setmelanotide acetate [reference compound]
[1]; 10 μM
  melanin synthesis: 130 % of the control
[2]
  modulation of melanin synthesis: did not modulate
[3]; [4]
  Individual typology angle (ITA): significantly modulated
  pigmentation index (PI): significantly modulated
  visual colorimetric difference (score, ΔE): significantly modulated
[3]; 10 μM, human epidermis in culture
  effect on epidermis pigmentation (conclusion of dermoscopy analysis): has a tanning effect

## N[C@@H](Cc1ccc(O)cc1)C(=O)O [L-tyrosine]
[1]
  melanin synthesis compared to the non-stimulated control, reference compounds: induced a stimulation of melanin synthesis
[2]
  melanin synthesis compared to the non-stimulated control, reference compounds: induced a stimulation of melanin synthesis

## CC(=O)N[C@@H](CCCNC(=N)N)C(=O)N[C@H]1CSSC[C@@H](C(N)=O)NC(=O)[C@H](Cc2c[nH]c3ccccc23)NC(=O)[C@H](CCCNC(=N)N)NC(=O)[C@@H](Cc2ccccc2)NC(=O)[C@H](Cc2c[nH]cn2)NC(=O)[C@@H](C)NC1=O [setmelanotide, reference compound]
Human wild type MC5R
  EC50: 451 ± 143 nM
